Data as given in US9403756B2, “N-phenyl anthranilic acid derivatives and uses thereof” (Ramot at Tel-Aviv University Ltd., priority 2007, dated 2016).
Several values for one entry are separate records, joined by “and”; a condition that tells them apart may be missing. Equal entries are not always repeated. Where two headings read alike, the source gives them in different places.

Experiments:
Kv7.2/3 channels = target: T1, Kv7.2/3 channels (Homo sapiens, UniProt O43525+O43526); experiment: Kv7.2/3 channels coexpressed in CHO cells, whole-cell patch-clamp; format: cell-based; details: for Activity: M-channel modulation, Kv7.2 and Kv7.3 subunits coexpressed in CHO cells; for ΔV50 (mV): left-shift of the activation curve of Kv7.2/3 channels; for V50: control V50=−32.1±8.9 mV; for fold increase in current amplitude: stepped from −90 to −50 mV, n=10
T1 construct: expressed in transfected cells; host or cells: CHO cells
Procedure: Chinese hamster ovary (CHO) cells were grown in Dulbecco's modified Eagle's medium (DMEM) supplemented with 2 mM glutamine, 10% fetal calf serum and antibiotics. Briefly, 40,000 cells seeded on poly-D-lysine-coated glass coverslips (13 mm diameter) in a 24-multiwell plate were transfected with pIRES-CD8 (0.5 μg) as a marker for transfection, and with Kv7.2 (0.5 μg) and Kv7.3 (0.5 μg) or TRPV1 […] or TRPV6 […].
For electrophysiology, transfected cells were visualized approximately 40 hours following transfection, using anti-CD8 antibody-coated beads. Transfection was performed using Fugene 6 (Roche, Indianapolis Ind., USA) according to the manufacturer's protocol.
Voltage-clamp recordings in CHO cells were performed, using the whole-cell configuration of the patch-clamp technique. Signals were amplified using an Axopatch 200B patch-clamp amplifier (Molecular Devices, Sunnyvale, Calif.), sampled at 2 kHz and filtered at 800 Hz via a 4-pole Bessel low pass filter. […] The patch pipettes were pulled from borosilicate glass (Warner Instrument Corp, USA) with a resistance of 2-5 MΩ. For K^+ current recordings in CHO cells, the intracellular pipette solution contained (in mM): 130 KCl, 1 MgCl2, 5 K2ATP, 5 EGTA, 10 HEPES, adjusted with KOH to pH 7.4 (290 mOsm). The extracellular solution contained (in mM): 140 NaCl, 4 KCl, 1.8 CaCl2, 1.2 MgCl2, 11 glucose, 5.5 HEPES, adjusted with NaOH to pH 7.4 (310 mOsm).
Data analysis was performed using the Clampfit program (pClamp 9.2, Molecular Devices), Microsoft Excel (Microsoft) and Prism 4.0 (GraphPad). Chord conductance (G) was calculated by using the following equation: G=I/(V−Vrev) where I corresponds to the current amplitude measured at the end of the pulse and Vrev, the calculated reversal potential. G was estimated at various test voltages V and then, normalized to a maximal conductance value, Gmax. Activation curves were fitted by one Boltzmann distribution: G/Gmax=1/{1+exp[(V50−V)/s]} where V50 is the voltage at which the current is half-activated and s is the slope factor. All data were expressed as mean±SEM. Statistically significant differences were assessed by Student's t-test. Analysis of sEPSCs and sIPSCs was done using the Clampfit program (pClamp 9.2, Molecular Devices) and included evaluation of the individual events as well as the average event amplitude and the integral of the event (total charge transfer).
In these studies, the impact of the compounds on M-channel activity was measured by the heterologous coexpression of Kv7.2 and Kv7.3 subunits in CHO cells.

COX = experiment: Anti-COX activity in cell culture, CT26 and D122 cell lines (results in words); format: cell-based, mouse; details: COX-dependent synthesis of PGE2
Procedure: Mouse colon adenocarcinoma CT26 and mouse lewis lung carcinoma D122 cells were grown in DMEM (D122) or RPMI (CT26) supplemented with 10% fetal calf serum, 4% glutamine, 1% penicillin-streptomycin-nystatin and 3% non essential amino acids (D122) and were kept in a humidified 37° C. incubator with 5% CO2. For the COX activity assays, cells were grown onto 24 multi-well plates.
Before the assay, cells were washed with serum-free medium; then the tested compounds were added to the medium and incubated for 30 minutes at 37° C. after which 30 μM arachidonic acid were added and incubated for additional 20 minutes. At the end of the incubation period, 10 μM Indomethacin were added to stop the reaction and medium was transferred to another 24 multi-well plate for measuring PGE2 production by radioimmunoassay (DuPont-NEN; Boston Mass.) according to manufacturer protocol. Protein determination was assayed on scraped cells using the Bradford method (1976) [Bradford M. M. 1976. Anal. Biochem. 72:248-254], with BSA as a standard and was used to normalize the amount of PGE2 production.
The anti-COX activity of NH25, NH29 and NH30 was examined in Mouse colon adenocarcinoma CT26 and mouse lewis lung carcinoma D122 cell lines. Cells were incubated with each of the tested compounds and the level of the COX-dependent synthesis of PGE2 was quantified using radioimmunoassay techniques.

SMILES | EC50 (Kv7.2/3 channels) | left-shift of Kv7.2/3 activation curve compared to control (Kv7.2/3 channels; 10 μM) | fold increase of Kv7.2/3 current amplitude (Kv7.2/3 channels; 25 μM, at −50 mV, n=5) | left-shift of Kv7.2/3 activation curve compared to control (Kv7.2/3 channels; 100 μM) | Activity (Kv7.2/3 channels) | ΔV50 (mV) (Kv7.2/3 channels) | EC50 (Kv7.2/3 channels; opener potency, concentration-dependent left-shift in half-activation potential ΔV50, sigmoidal fit) | anti-COX activity (COX) | V50 (Kv7.2/3 channels; 10 μM NH25, n=5) | fold increase in current amplitude (Kv7.2/3 channels; 10 μM) | left-shift of Kv7.2/3 activation curve compared to control (Kv7.2/3 channels; 50 μM) | V50 (Kv7.2/3 channels; 50 μM NH25, n=5) | fold increase in current amplitude (Kv7.2/3 channels; 50 μM) | left-shift of Kv7.2/3 activation curve compared to control (Kv7.2/3 channels; 200 μM) | V50 (Kv7.2/3 channels; 200 μM NH25, n=5) | deactivation kinetics τdeact (Kv7.2/3 channels; NH25, tail currents at −60 mV, control 129±22 ms, n=5) | EC50 (Kv7.2/3 channels; opener potency, concentration-dependent left-shift in half-activation potential ΔV50, sigmoidal fit, read-out: EC50)
O=C(Cc1cc([N+](=O)[O-])cc([N+](=O)[O-])c1Nc1c(Cl)cc([N+](=O)[O-])cc1Cl)NCCO [NH29] | 14 ± 2 µM | −13 mV | 9.4±1.2 fold | −31 mV | Opener | −31.3 mV | 14 µM | did not exhibit anti-COX activity | – | – | – | – | – | – | – | – | –
O=C(Cc1cc([N+](=O)[O-])ccc1Nc1c(Cl)cccc1Cl)OCCO [NH25] | – | −11 mV | – | – | Opener | −31.0 mV and −31 mV | – | exhibited anti-COX activity comparable to that of Diclofenac | −43.6±9.0 mV | 3.2 fold | −21 mV | −53.5±9.3 mV | 9.1 fold | −31 mV | −63.1±2.0 mV | 284 ± 43 ms | 22 µM
